Measured values from patent US20170184612A1, “USE OF LEUKOCYTES AND NOVEL BIOMARKERS IN THE DIAGNOSIS, CONFIRMATION, AND TREATMENT OF A NEUROLOGICAL DISORDER” (The Trustees of Columbia University in the City of New York, priority 2014, published 2017).

What was measured:
Assay type in all cases: cell-based, human
[1] = tested on: peripheral blood mononuclear cells (PBMC), T cells; experiment: ELISpot assay, gamma-interferon release (SFC) after stimulation with a-synuclein epitope pools; conditions: for IFNg Peptide + (donors positive to the peptide): of donors tested (peptide); for IFNg Peptide +: number of donors positive to the single peptide
Method in brief: (§1)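 Ficoll-isolated PBMC, PD vs age-matched controls, blinded; peptide pools (122 candidates + pS129 epitopes), 22 h, 37 C. Positive pools deconvoluted.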

[2] = tested on: peripheral blood mononuclear cells (PBMC), T cells; experiment: ELISpot assay, IL-5 release (SFC) after stimulation with a-synuclein epitope pools; conditions: for IL-g Peptide + (donors positive to the peptide): of donors tested (peptide); for IL-g Peptide +: number of donors positive to the single peptide
Method in brief: as §1

[3] = tested on: peripheral blood mononuclear cells (PBMC), T cells; experiment: ELISpot assay, IFNg and IL-5 reactivity combined, T cell response to α-syn epitopes; conditions: for Peptides + in Patients & Normals: flag 1/0 per peptide
Experimental: Blood from age matched controls and PD patients were obtained and mononuclear cells were isolated by gradient centrifugation.
Release of the cytokines gamma-interferon, which measures activation of CD4+ and/or CD8+ T cells, and the interleukin, IL-5, which measures activation of CD4+ T cells was measured by ELISpot assay. […] After 22 hours of stimulation at 37 C, the cells were removed and release of cytokines was measured by colorimetric detection of spot-forming cells (SFC). Confirmed release of cytokine is determined by the presence of a minimum of 20 SFC per million cells.
The binding algorithms in SubAim 1 predict how well the peptides would bind to MHC if present, but not if they are present in patients. To determine this, the presence of T cell response against the candidate antigens by patient blood-derived peripheral blood mononuclear cells (PBMC) is assessed by ELISPOT assays upon stimulation with the peptides. This assay detects and quantifies cytokine release (in this case, IFNγ and IL-5) from specific activated T cells.
Data were obtained from blood samples (25 ml) from 44 PD patients and 24 age-matched controls. The experiments were conducted blindly. PBMCs from these samples were isolated and exposed to pools comprising the 122 candidate class I and class II antigens and phosphorylated S129 epitopes generated in Subaim 1. For the PBMCs responsive to the pooled peptides, the response was then deconvoluted to identify individual epitopes.
PMBC fractions are recovered by standard methods with Ficoll gradient and T cells expansion (Oseroff et al., 2010). The methods for the analysis of T cell reactions and measurement of cytokines production using the enzyme-linked immunosorbent spot (ELISPOT) assay are published in analogous experiments to discover antigens in multiple sclerosis (Lolli et al., 2013) and in hay fever allergens (Oseroff et al., 2010). T cell responses are determined by measuring IFNγ and IL-5 release by ELISPOT. Statistical analysis of differences between populations is expected to be non-parametric and analyzed with the U-Mann-Whitney test. If there were a normal distribution of response, which is a priori unlikely as some patients have no T cell response, with an SD=1, 8 patients per group would be required to provide a p>90% that the study detect a >2 fold difference at a two-sided 0.05 significance level.

[4] = Patients Summary, PD patients, single peptide
[5] = second 'Pool Stimulated' section (from r296), 12 donors tested
[6] = peptide + / donors tested (peptide), second 'Pool Stimulated' section (from r296), 12 donors tested
[7] = single peptide, second 'Pool Stimulated' section (from r296), 12 donors tested
[8] = Normals Summary, single peptide

## 3521.0074 (VAAAEKTKQGVAEAP; listed as Homo sapiens)
[1]; Patients Summary, PD patients
  IFNg Peptide + (donors positive to the peptide): 1
[1]; [4]
  IFNg Avg SFC: 67 SFC
  IFNg Response Frequency: 33%
  IFNg Total SFC: 67 SFC
[1]; [5]
  IFNg Peptide +: 0
[1]; [6]
  IFNg Response Frequency: 0%
[1]; [7]
  IFNg Total SFC: 0 SFC
[2]; Patients Summary, PD patients
  IL-g Peptide + (donors positive to the peptide): 0
[2]; [4]
  IL-g Response Frequency: 0%
  IL-g Total SFC: 0 SFC
[2]; [5]
  IL-g Peptide +: 0
[2]; [6]
  IL-g Response Frequency: 0%
[2]; [7]
  IL-g Total SFC: 0 SFC
[3]
  Peptides + in Patients & Normals: 0

## 3521.0016 (DVFMKGLSK; listed as Homo sapiens)
[1]; Normals Summary
  IFNg Peptide + (donors positive to the peptide): 1
[1]; [8]
  IFNg Avg SFC: 673 SFC
  IFNg Response Frequency: 100%
  IFNg Total SFC: 673 SFC
[1]; Patients Summary, PD patients
  IFNg Peptide + (donors positive to the peptide): 0
[1]; [4]
  IFNg Response Frequency: 0%
  IFNg Total SFC: 0 SFC
[2]; Normals Summary
  IL-g Peptide + (donors positive to the peptide): 1
[2]; [8]
  IL-g Avg SFC: 180 SFC
  IL-g Response Frequency: 100%
  IL-g Total SFC: 780 SFC
[2]; Patients Summary, PD patients
  IL-g Peptide + (donors positive to the peptide): 0
[2]; [4]
  IL-g Response Frequency: 0%
  IL-g Total SFC: 0 SFC
[3]
  Peptides + in Patients & Normals: 0

## 3521.0046 (FMKGLSKAKE; listed as Homo sapiens)
[1]; Patients Summary, PD patients
  IFNg Peptide + (donors positive to the peptide): 0
[1]; [4]
  IFNg Response Frequency: 0%
  IFNg Total SFC: 0 SFC
[1]; [5]
  IFNg Peptide +: 0
[1]; [6]
  IFNg Response Frequency: 0%
[1]; [7]
  IFNg Total SFC: 0 SFC
[2]; Patients Summary, PD patients
  IL-g Peptide + (donors positive to the peptide): 0
[2]; [4]
  IL-g Response Frequency: 0%
  IL-g Total SFC: 0 SFC
[2]; [5]
  IL-g Peptide +: 0
[2]; [6]
  IL-g Response Frequency: 0%
[2]; [7]
  IL-g Total SFC: 0 SFC
[3]
  Peptides + in Patients & Normals: 0

## 3521.0052 (KTKQGVAEAA; listed as Homo sapiens)
[1]; Patients Summary, PD patients
  IFNg Peptide + (donors positive to the peptide): 0
[1]; [4]
  IFNg Response Frequency: 0%
  IFNg Total SFC: 0 SFC
[1]; [5]
  IFNg Peptide +: 0
[1]; [6]
  IFNg Response Frequency: 0%
[1]; [7]
  IFNg Total SFC: 0 SFC
[2]; Patients Summary, PD patients
  IL-g Peptide + (donors positive to the peptide): 0
[2]; [4]
  IL-g Response Frequency: 0%
  IL-g Total SFC: 0 SFC
[2]; [5]
  IL-g Peptide +: 0
[2]; [6]
  IL-g Response Frequency: 0%
[2]; [7]
  IL-g Total SFC: 0 SFC
[3]
  Peptides + in Patients & Normals: 0

## 3521.0043 (VFMKGLSKAK; listed as Homo sapiens)
[1]; Patients Summary, PD patients
  IFNg Peptide + (donors positive to the peptide): 0
[1]; [4]
  IFNg Response Frequency: 0%
  IFNg Total SFC: 0 SFC
[1]; [5]
  IFNg Peptide +: 1
[1]; [6]
  IFNg Response Frequency: 100%
[1]; [7]
  IFNg Avg SFC: 66.7 SFC
  IFNg Total SFC: 66.7 SFC
[2]; Patients Summary, PD patients
  IL-g Peptide + (donors positive to the peptide): 1
[2]; [4]
  IL-g Avg SFC: 191 SFC
  IL-g Response Frequency: 33%
  IL-g Total SFC: 191 SFC
[2]; [5]
  IL-g Peptide +: 1
[2]; [6]
  IL-g Response Frequency: 100%
[2]; [7]
  IL-g Avg SFC: 93.3 SFC
  IL-g Total SFC: 93.3 SFC
[3]
  Peptides + in Patients & Normals: 1

## GVLYVGSKTK (listed as Homo sapiens)
[3]; PD patients, region including Y39
  epitope identified by deconvolution of T cell response, in words: antigenic

## 3521.0004 (KTKEGVLYV; listed as Homo sapiens)
[1]; Patients Summary, PD patients
  IFNg Peptide + (donors positive to the peptide): 0
[1]; [4]
  IFNg Response Frequency: 0%
  IFNg Total SFC: 0 SFC
[1]; [5]
  IFNg Peptide +: 0
[1]; [6]
  IFNg Response Frequency: 0%
[1]; [7]
  IFNg Total SFC: 0 SFC
[2]; Patients Summary, PD patients
  IL-g Peptide + (donors positive to the peptide): 0
[2]; [4]
  IL-g Response Frequency: 0%
  IL-g Total SFC: 0 SFC
[2]; [5]
  IL-g Peptide +: 0
[2]; [6]
  IL-g Response Frequency: 0%
[2]; [7]
  IL-g Total SFC: 0 SFC
[3]
  Peptides + in Patients & Normals: 0
